# What was measured:
# Assay type in all cases: functional, organism-based
# Plasmodium berghei = test: In vitro inhibitory activity against Plasmodium berghei
# Plasmodium falciparum [1] = test: In vitro inhibitory activity against Plasmodium falciparum FcB1
# Plasmodium falciparum [2] = test: In vitro inhibitory activity against Plasmodium falciparum FCB2
IC50 (Plasmodium berghei; Plasmodium berghei) [nM],IC50 (Plasmodium berghei) [nM],IC50 (Plasmodium falciparum [1]) [nM],IC50 (Plasmodium falciparum [2]) [nM],Compound
72,,,,CCN(CC)CCCC(C)Nc1ccnc2cc(Cl)ccc12 (centres undefined) [CHLOROQUINE PHOSPHATE]
,18,10.5,46.5,Ruthenium-Chloroquine Complex[RuCl2(CQ)]2
